ChEMBL document CHEMBL1132512, “Substituted heterocyclic analogs as selective COX-2 inhibitors in the flosulide class” (Bioorg Med Chem Lett, 1999)

Columns and labels:
[1] = target: T1, Prostaglandin G/H synthase 2 (Homo sapiens, UniProt P35354); assay: Inhibition of human Prostaglandin G/H synthase 2 expressed in CHO (chinese hamster ovary) cells; type: cell-based
T1 sequence (P35354 whole entry): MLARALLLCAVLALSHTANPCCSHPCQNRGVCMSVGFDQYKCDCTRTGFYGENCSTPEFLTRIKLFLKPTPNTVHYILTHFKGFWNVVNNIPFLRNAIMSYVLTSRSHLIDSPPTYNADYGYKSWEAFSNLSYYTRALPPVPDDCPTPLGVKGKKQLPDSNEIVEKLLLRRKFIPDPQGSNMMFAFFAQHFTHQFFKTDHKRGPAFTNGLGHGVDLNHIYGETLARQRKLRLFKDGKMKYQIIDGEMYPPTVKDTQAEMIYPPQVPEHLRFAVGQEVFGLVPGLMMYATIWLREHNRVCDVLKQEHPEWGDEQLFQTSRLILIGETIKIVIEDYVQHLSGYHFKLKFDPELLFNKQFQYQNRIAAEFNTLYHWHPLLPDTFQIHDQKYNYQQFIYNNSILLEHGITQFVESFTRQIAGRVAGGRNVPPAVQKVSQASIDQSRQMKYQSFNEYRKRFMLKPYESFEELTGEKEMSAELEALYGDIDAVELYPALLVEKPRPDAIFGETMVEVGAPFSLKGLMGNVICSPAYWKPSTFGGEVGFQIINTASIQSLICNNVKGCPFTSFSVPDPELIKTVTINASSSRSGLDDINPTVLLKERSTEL

[2] = target: T1, Prostaglandin G/H synthase 2; assay: Inhibition of purified recombinant human Prostaglandin G/H synthase 2
[3] = target: T2, Prostaglandin G/H synthase 1 (Homo sapiens, UniProt P23219); assay: Inhibition of purified recombinant human Prostaglandin G/H synthase 1
[4] = target: T2, Prostaglandin G/H synthase 1; assay: Inhibition of Prostaglandin G/H synthase 1 activity in U937 microsomal assay; type: microsomes, Microsome
Rattus norvegicus [5] = assay: In vivo antiinflammatory activity expressed as percent inhibition after administration of 3 mg/kg was evaluated in rat paw edema assay; type: functional
Rattus norvegicus [6] = assay: In vivo antiinflammatory activity expressed as 30% effective dose was evaluated in rat paw edema assay; type: functional
Rattus norvegicus [7] = assay: In vivo antiinflammatory activity expressed as 50% effective dose was evaluated at 5 hr post dosing in rat pyresis model; type: functional
Rattus norvegicus [8] = assay: In vivo antiinflammatory activity expressed as 50% effective dose was evaluated in rat paw edema assay; type: functional

T2 sequence (P23219 whole entry): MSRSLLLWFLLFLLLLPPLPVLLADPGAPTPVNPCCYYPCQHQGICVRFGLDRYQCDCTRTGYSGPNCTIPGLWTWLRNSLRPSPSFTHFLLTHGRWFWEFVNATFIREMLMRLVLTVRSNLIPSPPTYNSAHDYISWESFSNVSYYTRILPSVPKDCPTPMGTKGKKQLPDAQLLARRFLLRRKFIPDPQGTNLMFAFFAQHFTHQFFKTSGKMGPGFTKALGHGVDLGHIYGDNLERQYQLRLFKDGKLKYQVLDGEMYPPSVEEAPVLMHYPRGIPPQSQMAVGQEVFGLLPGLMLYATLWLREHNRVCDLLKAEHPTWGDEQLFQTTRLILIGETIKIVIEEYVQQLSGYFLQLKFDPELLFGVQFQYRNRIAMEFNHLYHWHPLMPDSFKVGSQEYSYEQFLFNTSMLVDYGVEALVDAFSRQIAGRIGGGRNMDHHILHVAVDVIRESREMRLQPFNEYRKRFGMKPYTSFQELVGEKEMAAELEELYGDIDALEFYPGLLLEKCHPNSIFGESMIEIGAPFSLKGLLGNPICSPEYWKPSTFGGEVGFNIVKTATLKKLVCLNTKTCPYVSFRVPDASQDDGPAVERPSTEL

Row | IC50 [1] | IC50 [2] | IC50 [3] | IC50 [4] | SMILES | inhibition in vivo at 3 mg/kg (Rattus norvegicus [5]) | ED30 (Rattus norvegicus [6]) | ED50 (Rattus norvegicus [7]) | ED50 (Rattus norvegicus [8])
1 | 870 nM | 1500 nM | > 100000 nM | > 100000 nM | Cc1cnc(Sc2cc3c(cc2NS(C)(=O)=O)CCC3=O)s1 | – | – | – | –
2 | 30 nM | 380 nM | > 100000 nM | 620 nM | Cc1csc(Sc2cc3c(cc2NS(C)(=O)=O)CCC3=O)n1 | – | – | – | –
3 | 13 nM | 1000 nM | > 100000 nM | 6300 nM | CCc1csc(Sc2cc3c(cc2NS(C)(=O)=O)COC3=O)n1 | 65% | 0.16 mg/kg | 2.7 mg/kg | 0.93 mg/kg
4 | 27 nM | 610 nM | > 100000 nM | 1300 nM | CS(=O)(=O)Nc1cc2c(cc1Sc1nccs1)C(=O)OC2 | – | – | – | –
5 | > 1800 nM | 1700 nM | > 100000 nM | > 100000 nM | Cc1nc(Sc2cc3c(cc2NS(C)(=O)=O)CCC3=O)sc1C | – | – | – | –
6 | 43 nM | 6900 nM | > 100000 nM | 350 nM | Cc1csc(Sc2cc3c(cc2NS(C)(=O)=O)COC3=O)n1 | – | – | – | –
7 | 500 nM | 810 nM | > 100000 nM | > 30000 nM | CS(=O)(=O)Nc1cc2c(cc1Sc1ccccn1)C(=O)CC2 | – | – | – | –
8 | 140 nM | 310 nM | > 100000 nM | 12000 nM | C=Cc1csc(Sc2cc3c(cc2NS(C)(=O)=O)COC3=O)n1 | – | – | – | –
9 | 640 nM | 1000 nM | > 100000 nM | > 100000 nM | Cc1ccc(Sc2cc3c(cc2NS(C)(=O)=O)CCC3=O)nc1 | – | – | – | –
10 | 120 nM | 360 nM | > 100000 nM | 4900 nM | CS(=O)(=O)Nc1cc2c(cc1Sc1ncc(Cl)cc1Cl)C(=O)CC2 | – | 0.7 mg/kg | – | –
11 | 49 nM | 280 nM | ~100000 nM | 14000 nM | CCc1csc(Sc2cc3c(cc2NS(C)(=O)=O)CCC3=O)n1 | 43% | 0.3 mg/kg | 8.1 mg/kg | –
12 | 320 nM | 480 nM | > 100000 nM | 13000 nM | CS(=O)(=O)Nc1cc2c(cc1Sc1nccs1)C(=O)CC2 | – | – | – | –
13 | 220 nM | 520 nM | > 100000 nM | 6100 nM | CS(=O)(=O)Nc1cc2c(cc1Sc1ncccc1Cl)C(=O)CC2 | – | – | – | –
14 | – | – | > 100000 nM | 1600 nM | CS(=O)(=O)Nc1cc2c(cc1Sc1ccc(F)cc1F)C(=O)CC2 | – | – | – | –
15 | 11000 nM | 290 nM | > 100000 nM | 9300 nM | CSc1csc(Sc2cc3c(cc2NS(C)(=O)=O)COC3=O)n1 | – | – | – | –
